Measurements from patent US11155550B2, “Histone deacetylase inhibitors and methods of use thereof” (Reaction Biology Corp., priority 2018, dated 2021).
Several values for one entry are separate records, joined by “and”; a condition that tells them apart may be missing. Equal entries are not always repeated. Where two headings read alike, the source gives them in different places.

Assay: Brain exposure experiments in mice
Assay type: in vivo, mouse
Conditions: 1 hour after exposure
Method: Brain exposure experiments were performed wherein mice were exposed to Compound Example 4 at an IV dosage of 1 mg/kg (Table 5).

[1] = IV 1 mg/kg, individual mice (7, 8, 9), 1 mg/kg

For `CN1CCC2(CC1)CN(c1ccc(C(=O)Nc3cc(-c4cccs4)ccc3N)cn1)C(=O)O2` [Example 4, N-(2-amino-5-(thiophen-2-yl)phenyl)-6-(8-methyl-2-oxo-1-oxa-3,8-diazaspiro[4.5]decan-3-yl)nicotinamide], the “brain penetration (in words)” value (IV 1 mg/kg) was “very low brain penetration”, the Brain concentration [1] was 61.9 ng/mL and 0 ng/mL and 73 ng/mL and the Plasma concentration [1] was 1030 ng/mL and 2.22 μM and 1620 ng/mL and 3.50 μM. The concentration at 1 h (IV 1 mg/kg, individual mice (7, 8, 9), 1 mg/kg, read-out: Brain concentration) was 0.13 µM and 0.00 µM and 0.16 µM, the concentration at 1 h (mouse, brain, iv, 1 mg/kg, Average, read-out: Brain concentration) was 67.5 ng/mL and 150 nM and the concentration at 1 h (mouse, plasma, iv, 1 mg/kg, Average, read-out: Plasma concentration) was 1440 ng/mL and 3.1 µM. For the same molecule, the concentration at 1 h (mouse, plasma, iv, 1 mg/kg, individual mice (7, 8, 9), read-out: Plasma concentration) was 1660 ng/mL and 3.59 µM.
